Data as given in patent publication US5492906A, “Derivatives of thieno-triazolo-diazepine and therapeutic compositions containing them” (Societe de Conseils de Recherches et d'Applications …, priority 1989, dated 1996).

Key:
[1] = molecular target: benzodiazepine receptors; test: Inhibition of the binding to benzodiazepine receptors (rat brains); conditions: rat brains incubated 1 h 30 at 4° C.; 3H-RO-15-4788 and 3H-RO-5-4864 as tracers; Table I; read-out: BDZ receptors (inhibition of the binding to benzodiazepine receptors)
From the text: 2) Inhibition of the binding to benzodiazepine receptors
The interest of the previous experimentation depends on the results obtained in this experimentation: as a compound of the invention has a benzodiazepine like structure, it is important to check whether the specific benzodiazepine activity would not appear at the dose where platelet agregation was inhibited.
Therefore, this experimentation has been conducted according to the method of MOHLER H. and RICHARD J. G. Agonist and antagonist benzodiazepine receptor intereaction in vitro, Nature, vol. 294, 763°-765, 1981.
This experimentation was conducted on rat brains incubated 1 h 30 at 4° C. using ^3 H-RO-15-4788 and ^3 H-RO-5-4864 (NEN) as tracers and […] and RO-5-4864 as reference antagonists.
The results in molecular concentration are reported in the table I, on the right hand column.

[2] = system: bronchospasm induced by the PAF; test: Action on the bronchospasm induced by the PAF in anaesthetized guinea-pigs; type: in vivo, guinea-pig; conditions: male Hartley guinea-pigs, oral, 1 hour before PAF i.v.
From the text: 3) Action on the bronchospasm induced by the PAF
The PAF intravenous injection in anaesthetized guinea-pigs induces a bronchoconstriction with a leucopeny and a thrombocytopeny, according to the method described in S. DESQUAND, C. TOUVAY, J. RANDON, V. LAGENTE, B. VILAIN, I. MARIDONNEAU-PARINI, A. ETIENNE, J. LEFORT, P. BRAQUET and B. VARGAFTIG. Interference of BN 52021 (Ginkolide B) with the bronchopulmonary effects of PAF-acether in the guinea-pig. Eur. J. Pharmacol. 127: 83-95, 1986.
Male Hartley guinea-pigs (400-450 g) (Charles River) anaesthetized with urethane (2 g/kg IP), then are thracheotomized and submitted to a forced respiration with a breathing pump:70-80 strokes/mn, 1 ml of air/ 100 g per stroke. A catheter is introduced in the jugular vein for the injections, an other is introduced in the carotic artery for blood takings. The initial resistance is kept constant under the pressure of 10 cm of water in accordance with the Konzett and Rossler method and the air in excess is measured with a transducor for bronchospasm UGO BASILE together with an enregistror GEMINI. The guinea-pigs had received an IV injection of pancuronium (Pavulon) to inhibit their spontaneous respiration.
The compound according to the invention and the reference compound WEB 2086 (see the above cited Boehringer patent) have been prepared as suspension in gummy water and administrated orally 1 hour before the stimulation by the PAF.
The bronchoconstriction is appreciated by the calculation of the percentage of bronchoconstriction [formula] wherein A stands for induced bronchoconstriction in mm and B stands for maximum bronchoconstriction in mm.

[3] = system: platelet agregation induced by PAF; test: Inhibition of platelet agregation induced by PAF; type: cell-based, New Zealand rabbits; conditions: Oryctolagus cuniculus, New Zealand rabbit platelets, agregometer at 57° C., Table I
Procedure: 1) Inhibition of platelet agregation induced by PAF
This experimentation was conducted according to the method of R. KINLOUGH. RATHBONE, J. P. CAZENAVE, M. PACKHAM and F. MUSTARD, Lab. Invest. 48, 98, 1980. In this test, New Zealand rabbits were used (male New Zealand rabbits of an average weight of 5 kg).
The determinations are made on a chrono-log Coultronics agregometer, at […] coupled with a graphic recorder; the results of these determinations (in molecular concentration) are reported on the table I on the central column.

[4] = Toxicity on the mice; conditions: mouse, in vivo, IP route

With `Cc1nnc2n1-c1sc3c(c1C(c1ccccc1Cl)=NC2)CCN(C(=S)NS(=O)(=O)c1ccc[nH]1)C3` [Example 33, 6-(2-chlorophenyl)-9-(2-pyrrolylsulfonyl)thiocarbamoyl7,8,9,10-tetrahydro-1-methyl-4H-pyrido[4',3':4,5]thieno[3,2-f]1,2,4-triazolo[4,3-a]1,4-diazepine] the IC50 [1] was 9.1 µM, the Percentage of action ([2]; change versus controls) was -71.7% and the Percentage of bronchoconstriction ([2]; controls 79. ± 5.55, dose not given) was 22.4%. The IC50 [3] was 0.205 µM and the LD50 [4] was 400 to 1000 mg/kg.
